Test system: Influenza A/Victoria/H3N2
Experiment: Plaque assay on MDCK cells after exposure of virions to 160 ppm NO gas
Assay type: cell-based
Conditions: for plaques (infectious virus titre): 160 ppm gNO

## Nitric oxide [NO-gas]
Exposure 0 mins
  plaques (infectious virus titre): 250 ± 14 pfu/ml
Exposure 60 mins
  plaques (infectious virus titre): 50 ± 11 pfu/ml
Exposure 120 mins
  plaques (infectious virus titre): 43 ± 10 pfu/ml
Exposure 180 mins
  plaques (infectious virus titre): 29 ± 14 pfu/ml
Virions exposed to 160 ppm NO before incubation with host cells
  less transmissible into host cells than the control group: at least 80%

— patent publication US20100040703A1, “USE OF NITRIC OXIDE” (priority 2008, published 2010)
